Values after ≈ are worked out from the molar mass of the structure shown.
How the values were obtained:
[1] = Aqueous solubilization of 3 under irradiation at various wavelengths (xenon flash lamp, 96-well plate); format: physicochemical; details: for solubility at 1 h: phosphate buffer, 21 °C, pH 7.4, aqueous buffer, thermodynamic from solid, read-out: Aqueous solubilized 3; for solubility at 1 h / Cis ratio: 1 h
Experimental: Table S4. Aqueous solubilization and cis ratio of 3 under irradiation at various wavelengths through filters of […]
Illumination was performed with a xenon lamp using repeated cycles of irradiation and shaking (5000 flashes, then shaking for 10 sec) through filters of various bandwidths at room temperature (20-22 °C) for 1 h. The cis ratio in the aqueous solution was evaluated by HPLC immediately after filtration, based on peak area. […]
For irradiation at various UV wavelengths, 3 (about 0.1 mg) was ground and taken up in 1/15 M phosphate buffer (pH 7.4, 0.2 mL) in a well of a 96-well white plate. Illumination over a range of wavelength from 355-540 nm was performed using a plate reader EnVision equipped with a xenon flash lamp (35 W, 500 Hz), with excitation filters of appropriate bandwidths. A protocol of irradiation and shaking cycles (5000 flashes, then shaking for 10 sec) was repeated for 1 h at room temperature (20-22 °C). Then, the suspension was filtered through a Millipore Millex-LG (0.20 µm).

[2] = Aqueous dissolution in the dark of UV-irradiated crystals of 3; format: physicochemical; details: for cis ratio contained in the solution, on average: dissolved in the dark; for cis ratio / solubility at 1 h: 37 °C, 1 h; for solubility at 1 h: phosphate buffer, thermodynamic from solid, read-out: Aqueous solubilized 3
Source text: At the photostationary state under UV irradiation, the equilibria shown in Fig. 3a should be in balance. Here, we are interested in the transient process, i.e., how cis-3 in solution increases when UV irradiation is started. There are two possible routes for generating cis-3 in solution from trans-3 in the solid state: route (i) and (ii). Route (i) is clearly possible, because the process trans solution → cis solution is easily driven by UV irradiation (Fig. S3a). The remaining question is whether cis isomerization of solid 3 is induced under UV irradiation, that is, whether route (ii) also operates. To answer this question, we investigated the aqueous dissolution in the dark of UV-irradiated crystals of 3. The UV-irradiated crystals were clearly more soluble than the unirradiated crystals (Fig. 3b and Table S7). In addition, the cis ratio of UV-irradiated crystals contained in the solution was higher than that of unirradiated crystals (14% vs 4% on average, Table S7). […] Therefore, we conclude that routes (i) and (ii) both operate upon UV irradiation.
Figure 3 (a) Possible equilibria and routes for generating cis-3 in solution. (b) Kinetics of aqueous dissolution of UV-irradiated crystals of 3, measured in the dark. Crystals of 3 were irradiated with 365 nm LED light (344 mW/cm^2) at 37 °C for 3 h. The UV-irradiated crystals and unirradiated crystals were each shaken with phosphate buffer in the dark at 37 °C for 1 h. Data are the mean ± SD of three individual experiments. The asterisk indicates a significant difference (*p < 0.05) from the unirradiated crystals according to the unpaired, two-sided Student’s t-test. […]
Table S7. Aqueous dissolution of UV-irradiated crystals of 3 measured in the dark, and the cis ratio contained […]
Unirradiated crystals UV-irradiated crystals entry Aqueous solubilized 3 cis ratio (%) Aqueous solubilized 3 cis ratio (%) […]
Crystals of 3 were irradiated with 365 nm LED light (344 mW/cm2) at 37 °C for 3 h. It should be noted that […]
The UV-irradiated crystals and unirradiated crystals were each shaken in phosphate buffer in the dark at 37 °C for 1 h.

[3] = wavelength 380 nm, bandwidth 10 nm, room temperature
[4] = wavelength 405 nm, bandwidth 8 nm, room temperature
[5] = wavelength 450 nm, bandwidth 8 nm, room temperature
[6] = wavelength 485 nm, bandwidth 14 nm, room temperature
[7] = wavelength 535 nm, bandwidth 25 nm, room temperature
[8] = wavelength 540 nm, bandwidth 8 nm, room temperature

trans ratio at photostationary state (maximum) ([1]; irradiation at 535 nm): 93% | solubility at 1 h ([1]; wavelength 355 nm, bandwidth 40 nm, room temperature (20-22 °C)): 4.8 µg/mL (≈ 17.1 µM) | solubility at 1 h [1, 3]: 2.8 µg/mL (≈ 9.95 µM) | solubility at 1 h [1, 4]: 2.4 µg/mL (≈ 8.53 µM) | solubility at 1 h [1, 5]: 0.75 µg/mL (≈ 2.67 µM) | solubility at 1 h [1, 6]: 0.47 µg/mL (≈ 1.67 µM) | solubility at 1 h [1, 7]: 0.57 µg/mL (≈ 2.03 µM) | solubility at 1 h [1, 8]: 0.28 µg/mL (≈ 0.995 µM) | Cis ratio ([1]; wavelength 355 nm, bandwidth 40 nm, room temperature): 90% | Cis ratio [1, 3]: 90% | Cis ratio [1, 4]: 78% | Cis ratio [1, 5]: 44% | Cis ratio [1, 6]: 20% | Cis ratio [1, 7]: 7% | Cis ratio [1, 8]: 7% | cis ratio contained in the solution, on average ([2]; UV-irradiated crystals): 14% | cis ratio ([2]; UV-irradiated crystals, entry 1, dark): 21% | cis ratio ([2]; UV-irradiated crystals, entry 2, dark): 14% | cis ratio ([2]; UV-irradiated crystals, entry 3, dark): 7% | cis ratio ([2]; Unirradiated crystals, entry 1, dark): 5% | cis ratio ([2]; Unirradiated crystals, entry 2, dark): 3% | cis ratio ([2]; Unirradiated crystals, entry 3, dark): 4% | solubility at 1 h ([2]; aqueous buffer, Unirradiated crystals, entry 2, dark): 2.6 µg/mL (≈ 9.24 µM) | solubility at 1 h ([2]; pH 7.4, aqueous buffer, UV-irradiated crystals (365 nm LED 344 mW/cm2, 37 °C, 3 h), entry 1, dark): 3.7 µg/mL (≈ 13.2 µM) | solubility at 1 h ([2]; pH 7.4, aqueous buffer, UV-irradiated crystals, entry 2, dark): 3.4 µg/mL (≈ 12.1 µM) | solubility at 1 h ([2]; pH 7.4, aqueous buffer, UV-irradiated crystals, entry 3, dark): 3.2 µg/mL (≈ 11.4 µM) | solubility at 1 h ([2]; pH 7.4, aqueous buffer, Unirradiated crystals, entry 1, phosphate buffer, dark): 2.8 µg/mL (≈ 9.95 µM) | solubility at 1 h ([2]; pH 7.4, aqueous buffer, Unirradiated crystals, entry 3, dark): 3 µg/mL (≈ 10.7 µM) | cis ratio contained in the solution, on average ([2]; unirradiated crystals): 4%
Structure (SMILES): CC(C)n1nc(/N=N/c2ccccc2)c2c(N)ncnc21 [Compound 3]

— PMC5537305, “Photo-enhanced Aqueous Solubilization of an Azo-compound” (Scientific Reports, 2017)
